The values below come from patent US6191161A, “Prolylendopeptidase inhibitors” (Chinoin Gyogyszer es Vegyeszeti, priority 1995, dated 2001).

The structures appear in SMILES notation.

In this assay the target is T1, prolyl endopeptidase (PEP), rat brain extract (Rattus norvegicus, UniProt O70196).
T1 construct: the supernatant, containing the enzyme, was collected; from tissue; host or cells: rat (Sprague-Dawley, male) whole brain without cerebellum, 40000 g supernatant
T1 sequence (O70196 1-710): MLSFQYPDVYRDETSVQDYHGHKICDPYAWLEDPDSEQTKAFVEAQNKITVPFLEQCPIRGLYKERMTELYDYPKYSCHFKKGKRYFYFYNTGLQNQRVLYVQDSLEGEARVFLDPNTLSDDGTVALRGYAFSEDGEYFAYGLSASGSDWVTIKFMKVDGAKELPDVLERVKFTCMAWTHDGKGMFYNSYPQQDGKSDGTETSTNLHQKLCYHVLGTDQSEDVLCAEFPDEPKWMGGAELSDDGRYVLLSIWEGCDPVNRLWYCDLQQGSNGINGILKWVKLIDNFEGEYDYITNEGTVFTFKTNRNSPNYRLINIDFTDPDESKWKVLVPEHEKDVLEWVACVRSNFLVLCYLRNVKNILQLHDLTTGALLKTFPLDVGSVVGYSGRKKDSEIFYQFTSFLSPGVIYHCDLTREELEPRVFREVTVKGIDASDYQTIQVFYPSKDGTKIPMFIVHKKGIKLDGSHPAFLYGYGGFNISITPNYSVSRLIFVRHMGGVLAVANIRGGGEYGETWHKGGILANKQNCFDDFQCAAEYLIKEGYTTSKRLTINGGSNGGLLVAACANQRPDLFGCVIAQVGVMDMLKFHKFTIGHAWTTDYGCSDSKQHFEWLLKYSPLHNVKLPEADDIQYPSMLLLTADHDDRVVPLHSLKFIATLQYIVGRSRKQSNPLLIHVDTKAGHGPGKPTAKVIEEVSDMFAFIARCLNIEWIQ
The assay is described as follows: PEP activity measurement on rat brain extract. The class given is biochemical, rat (Sprague-Dawley). To be noted: Z-glycyl-prolyl-7-amino-4-methyl-coumarin 62.5 μM, room temperature, 15 min. As for the experimental part:
PEP Activity Measurement on Rat Brain Extract:
After removal of the cerebellum whole brain of male (Sprague-Dawley, 180-200 g) rats was homogenized in a double volume of 0.1 M Tris-HCl, 1 mM EDTA buffer, pH=7.5 (PEP buffer). The homogenate was centrifuged for 30 min. at 4° C. at 40000 g and the supernatant, containing the enzyme, was collected. The pellet was resuspended in the same volume of buffer as in the first case and centrifuged again under the same conditions. The two supernatants were pooled and stored in 1 ml aliquots at -70° C. (for at least 3 months). The supernatant was thawn just before activity measurement and diluted in a 1:15 ratio with PEP buffer. […] The inhibitory effect of compounds was tested under the same conditions in the presence of 100 to 0.001 nM compound.
`O=C([C@@H]1CSCN1C(=O)CCN1C(=O)c2cccc3cccc(c23)C1=O)N1CCSC1` [Example 123]: the midpoint of inhibition, the IC50, lay at 0.278 nM.
`Cc1ccc2c(c1)C(=O)N(CCC(=O)N1CSC[C@H]1C(=O)N1CCSC1)C2=O` [Example 31]: the midpoint of inhibition, the IC50, lay at 0.36 nM.
The compound `O=C([C@@H]1C[S+]([O-])CN1C(=O)CCCN1C(=O)Nc2ccc([N+](=O)[O-])cc2S1(=O)=O)N1CCCC1` (stereo partly drawn) [Example 171] showed a 50% inhibitory concentration (IC50) of 0.451 nM.

What is called IC50 is the midpoint of a concentration-inhibition curve. High values mean a need for much substance, low ones inhibition by little substance.
